One data set concerns the target CYP3A4 (printed CYP34A) (Homo sapiens, UniProt P08684). Kind of data set: Activation of CYP34A in human hepatocyte using midazolam as substrate preincubated for 5 days followed by substrate addition and measured after 1 hr by LC-MS/MS analysis relative to control. In kind it is ADME, cell-based. The settings on record: hepatocytes, probe midazolam, time 121 hrs.
Data set [1] is described as follows: Ratio of unbound drug level in Sprague-Dawley rat brain to plasma at 1 to 10 mg/kg, po by LC-MS/MS analysis. The class given is ADME, organism-based. As to conditions: dose 1-10 mg/kg, read-out: K(p,uu,brain).
A further data set concerns the target Cytochrome P450 2D6 (Homo sapiens, UniProt P10635). Kind of data set: […] of human CYP2D6 mediated drug metabolism incubated for 5 mins followed by NADPH addition measured after 1 hr by LC-UV/MS analysis relative to control. The settings on record: recombinant enzyme, 1.083 h, time 65 min. In kind it is ADME.

Sequence of CYP3A4 (printed CYP34A) (P08684 whole entry): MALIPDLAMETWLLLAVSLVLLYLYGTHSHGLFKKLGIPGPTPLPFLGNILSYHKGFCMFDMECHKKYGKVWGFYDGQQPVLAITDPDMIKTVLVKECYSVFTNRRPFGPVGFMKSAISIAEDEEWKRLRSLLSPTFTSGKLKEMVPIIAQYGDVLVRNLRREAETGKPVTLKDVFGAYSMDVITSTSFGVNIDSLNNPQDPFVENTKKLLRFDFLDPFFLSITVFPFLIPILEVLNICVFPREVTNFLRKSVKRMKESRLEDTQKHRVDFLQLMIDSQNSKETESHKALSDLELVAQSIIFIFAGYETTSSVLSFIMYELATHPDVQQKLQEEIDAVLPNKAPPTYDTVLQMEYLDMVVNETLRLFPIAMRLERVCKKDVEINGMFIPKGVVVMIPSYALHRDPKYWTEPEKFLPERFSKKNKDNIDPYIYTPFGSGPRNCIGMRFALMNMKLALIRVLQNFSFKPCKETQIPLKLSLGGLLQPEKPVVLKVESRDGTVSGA
Sequence of Cytochrome P450 2D6 (P10635 whole entry): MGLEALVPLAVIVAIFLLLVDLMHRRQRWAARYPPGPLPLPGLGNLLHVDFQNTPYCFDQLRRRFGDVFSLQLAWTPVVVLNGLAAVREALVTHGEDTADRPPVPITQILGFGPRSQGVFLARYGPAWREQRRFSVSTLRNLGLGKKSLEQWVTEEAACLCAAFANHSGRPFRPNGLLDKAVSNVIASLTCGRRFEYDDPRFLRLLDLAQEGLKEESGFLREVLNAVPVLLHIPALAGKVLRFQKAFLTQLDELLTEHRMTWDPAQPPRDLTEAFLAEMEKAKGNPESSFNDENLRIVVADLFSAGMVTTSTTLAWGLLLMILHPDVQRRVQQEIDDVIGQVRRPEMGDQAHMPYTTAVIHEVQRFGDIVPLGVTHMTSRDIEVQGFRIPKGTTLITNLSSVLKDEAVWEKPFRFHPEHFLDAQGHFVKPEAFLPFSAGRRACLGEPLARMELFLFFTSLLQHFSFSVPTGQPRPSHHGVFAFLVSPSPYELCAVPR

As a reminder, the Emax is the maximal effect, on the per cent scale that the assay sets. The molecule `COc1ccc(CNC(=O)c2sc3nnc(C)c(C)c3c2N)cc1F` showed an Emax at 1 h on CYP3A4 (printed CYP34A) of at most 1%. In addition, the Kp uu in data set [1] came out at 0.37. The Activity at Cytochrome P450 2D6 is reported as 0.2%.

(Values after ChEMBL document CHEMBL5252536, “Discovery of VU0467485/AZ13713945: An M4 PAM Evaluated as a Preclinical Candidate for the Treatment of Schizophrenia” (ACS Med Chem Lett, 2017).)
